Assay [1] deals with synovial sarcoma cell lines (SYO1, HS-SY-II, and ASKA). Nature of the assay: Growth of synovial sarcoma cell lines, crystal violet day 14 (Example 4). It counts as cell-based. As to conditions: SYO1, HS-SY-II, ASKA; treated daily, day 14, FIG. 8. As for the experimental part:
(§1) Procedure: Cells were seeded into 6-well or 12-well plates and were treated daily with a BRD9 degrader (Compound 1), a bromo-domain BRD9 binder (Compound 2), E3 ligase binder (lenalidomide), DMSO, or staurosporin (positive control for cell killing), at indicated concentrations. The number of cells was optimized for each cell line. Growth media was refreshed every 5 days. By day 14, medium was removed, cells were washed with PBS, and stained using 500 μL of 0.005% (w/v) crystal violet solution in 25% (v/v) methanol for at least 1 hour at room temperature. Subsequently plates were scanned on an Odyssey CLx Imaging system.

For assay [2], the system named is non-synovial control cancer cell lines (RD, HCT116, and Calu6). Nature of the assay: Growth of non-synovial control cancer cell lines, crystal violet day 14 (Example 4). It counts as cell-based. As to conditions: treated daily, day 14, FIG. 9. On the procedure:
as §1

Assay [3] relates to non-synovial control cancer cell lines (293T, A549, G401). The assay is described as follows: Growth of non-synovial control cancer cell lines (Example 3). It counts as cell-based. The following applies: FIGS. 5-7. As for the experimental part:
(§2) Cells were treated with DMSO or the BRD9 degrader, Compound 1, at indicated concentrations, and proliferation was monitored from day 7 to day 14 by measuring confluency over time using an IncuCyte live cell analysis system (FIG. 5). Growth medium and compounds were refreshed every 3-4 days.
(§3) Cells were seeded into 12-well plates and treated with DMSO, 1 μM BRD9 inhibitor, Compound 2 (also known as BI-7273, see Martin et al, J Med Chem. 59(10):4462-4475 (2016); see structure of Compound 2 below), or 1 μM BRD9 degrader, Compound 1.
(§4) The number of cells was optimized for each cell line. Growth medium and compounds were refreshed every 3-5 days. SYO1, Yamato, A549, 293T and HS-SY-II cells were fixed and stained at day 11. ASKA cells were fixed and stained at day 23. Staining was done by incubation with crystal violet solution (0.5 g Crystal Violet, 27 ml 37% Formaldehyde, 100 mL 10×PBS, 10 mL Methanol, 863 dH20 to 1 L) for 30 min followed by 3× washes with water and drying the plates for at least 24 h at room temperature. Subsequently plates were scanned on an Odyssey CLx Imaging system (FIG. 6).
(§5) Cells were seeded into 96-well ultra low cluster plate (Costar, #7007) in 200 μL complete media and treated at day 2 with DMSO, Staurosporin, or BRD9 degarder, Compound 1, at indicated doses (FIG. 7). Media and compounds were changed every 5 d and cell colonies were imaged at day 14.

Assay [4] deals with synovial sarcoma cell lines (SYO1, Yamato, HS-SY-II, and ASKA). Nature of the assay: Growth of synovial sarcoma cell lines (confluency, crystal violet, colonies; Example 3). Format: cell-based. The following applies: FIGS. 5-7, 1 μM in crystal violet assay. On the procedure:
as §2, §3, §4, §5

For assay [5], the target named is Nanoluciferase-BRD9 fusion protein (Homo sapiens (Human), UniProt Q9H8M2). Nature of the assay: SYO1 BRD9 NanoLuc degradation assay. It counts as cell-based. As to conditions: Table 5A, SYO-1 cells expressing 3×FLAG-NLuc-BRD9, 6 hours; for DC50: read-out: SYO1 BRD9-NanoLuc degradation IC50. A digest of the protocol: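 Degradation was read as loss of nanoluciferase signal (Nano-Glo) after 6 h compound exposure in a stable SYO-1 line carrying 3×FLAG-NLuc-BRD9 (8000 cells/well). Normalised between DMSO (high) and a 1 μM known BRD9 degrader (low).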
Sequence of Nanoluciferase-BRD9 fusion protein (Q9H8M2 whole entry, the tested form may be a part): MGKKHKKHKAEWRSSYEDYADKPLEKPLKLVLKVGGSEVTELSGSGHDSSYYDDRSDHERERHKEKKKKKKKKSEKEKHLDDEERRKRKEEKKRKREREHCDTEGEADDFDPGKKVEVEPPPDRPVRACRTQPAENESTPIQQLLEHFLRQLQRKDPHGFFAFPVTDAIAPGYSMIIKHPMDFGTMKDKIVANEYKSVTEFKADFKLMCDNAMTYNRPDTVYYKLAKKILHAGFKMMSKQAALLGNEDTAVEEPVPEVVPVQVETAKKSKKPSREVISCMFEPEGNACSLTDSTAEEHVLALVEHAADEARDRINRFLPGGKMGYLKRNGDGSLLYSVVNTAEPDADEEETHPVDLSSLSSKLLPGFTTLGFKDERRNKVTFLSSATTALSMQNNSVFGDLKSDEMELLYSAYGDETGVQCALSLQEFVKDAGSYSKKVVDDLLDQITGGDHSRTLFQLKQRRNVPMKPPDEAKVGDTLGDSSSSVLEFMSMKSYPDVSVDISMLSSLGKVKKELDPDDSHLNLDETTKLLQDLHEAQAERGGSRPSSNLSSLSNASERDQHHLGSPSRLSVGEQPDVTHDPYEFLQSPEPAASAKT

The target of the next assay is BRD9 bromodomain (Homo sapiens (Human), UniProt Q9H8M2). The assay is described as follows: BRD9 bromodomain TR-FRET competition binding assay. The following applies: Table 4; competition with biotinylated ligand, 3 nM Flag-BRD9, 90 minutes. In short, it runs like this: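 TEV-cleaved Flag-BRD9 (P133-K239, 3 nM) competed against 3.75 nM biotinylated ligand, with 7.5 nM APC-streptavidin and 0.2 nM Eu-W1024 anti-FLAG, in HEPES pH 7.4, NaCl, TCEP, Tween-20, BSA. Compounds were serially diluted 3-fold; after 90 min at room temperature the 665/615 nm emission ratio was read.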
Sequence of BRD9 bromodomain (Q9H8M2 133-239): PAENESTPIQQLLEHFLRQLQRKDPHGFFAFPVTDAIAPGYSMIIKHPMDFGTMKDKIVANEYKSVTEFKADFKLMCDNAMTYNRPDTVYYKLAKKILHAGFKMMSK
A general note: In TR-FRET formats the signal depends on donor and acceptor labels being close together.

In the case of `COc1cc(-c2cn(C)c(=O)c3cnccc23)cc(OC)c1CN(C)C` [Compound 2], the “inhibition of growth of synovial sarcoma cell lines” value in assay [1] and in assay [4] was “inhibition of the growth of the cells” in each case. The “inhibition of growth of non-synovial control cancer cell lines” value is “did not result in inhibition of the growth” in assay [2] and “does not result in inhibition of the growth” in assay [3].
On to `COc1cc(-c2cn(C)c(=O)c3cnccc23)cc(OC)c1CN(C)CC1CC12CCN(C(=O)CCOCCOc1ccc3c(c1)C(=O)N(C1CCC(=O)NC1=O)C3=O)CC2` (stereo not shown) [Compound D172], for which the DC50 in assay [5] is 10 to 100 nM. Besides, the half-inhibitory concentration (IC50) at BRD9 bromodomain was < 10 nM.
For `COc1cc(-c2cn(C)c(=O)c3cnccc23)cc(OC)c1CN1CC2(CCC2NC(=O)CCOCCOc2ccc3c(c2)C(=O)N(C2CCC(=O)NC2=O)C3=O)C1` (stereo not shown) [Compound D115], the IC50 in assay [5] was 100 to 1000 nM; at BRD9 bromodomain, 10 to 100 nM.
In the case of `COc1cc(-c2cn(C)c(=O)c3cnccc23)cc(OC)c1CN1CC2(CCN(C(=O)CCOCCOc3cccc4c3C(=O)N(C3CCC(=O)NC3=O)C4=O)CC2)C1` (stereo not shown) [Compound D85], the figures for the IC50 (in assay [5]; at BRD9 bromodomain) were 100 to 1000 nM and 10 to 100 nM, respectively.
On to `COc1cc(-c2cn(C)c(=O)c3cnccc23)cc(OC)c1CN1CC2(C1)CN(C(=O)CCCCOc1cccc3c1C(=O)N(C1CCC(=O)NC1=O)C3=O)C2` (stereo not shown) [Compound D34, 4-((5-(6-(2,6-dimethoxy-4-(2-methyl-1-oxo-1,2-dihydro-2,7-naphthyridin-4-yl)benzyl)-2,6-diazaspiro[3.3]heptan-2-yl)-5-oxopentyl)oxy)-2-(2,6-dioxopiperidin-3-yl)isoindoline-1,3-dione], for which the IC50 (in assay [5]; at BRD9 bromodomain) was < 10 nM throughout.
Turning to `COc1cc(-c2cn(C)c(=O)c3cnccc23)cc(OC)c1CN(C)CC12CC(C(=O)NCCCCCNc3cccc4c3C(=O)N(C3CCC(=O)NC3=O)C4=O)(C1)C2` (stereo not shown) [Compound D56, 3-[([[2,6-dimethoxy-4-(2-methyl-1-oxo-2,7-naphthyridin-4-yl)phenyl]methyl](methyl)amino)methyl]-N-(5-[[2-(2,6-dioxopiperidin-3-yl)-1,3-dioxoisoindol-4-yl]amino]pentyl)bicyclo[1.1.1]pentane-1-carboxamide], the 50% inhibitory concentration (IC50) (in assay [5]; at BRD9 bromodomain) was < 10 nM in each case.
Consider `COc1cc(-c2cn(C)c(=O)c3cnccc23)cc(OC)c1CN(C)CC1CC2CN(C(=O)CCOCCOc3cccc4c3C(=O)N(C3CCC(=O)NC3=O)C4=O)C[C@@H]2C1` (stereo partly shown) [Compound D166], for which, in assay [5], the DC50 lay in the range of 10 to 100 nM. The IC50 on BRD9 bromodomain was < 10 nM.
For `COc1cc(-c2cn(C)c(=O)c3cnccc23)cc(OC)c1CN1CCC2(CCN(C(=O)CCOCCOc3ccc4c(c3)C(=O)N(C3CCC(=O)NC3=O)C4=O)CC2)C1` (stereo not shown) [Compound D120], the IC50 (in assay [5]; at BRD9 bromodomain) was 10 to 100 nM each time.
Consider `COc1cc(-c2cn(C)c(=O)c3cnccc23)cc(OC)c1CN1CC[C@H]1CN(C)Cc1cccc2c1C(=O)N(C1CCC(=O)NC1=O)C2=O` (stereo partly drawn) [Compound D27, 4-(((((S)-1-(2,6-dimethoxy-4-(2-methyl-1-oxo-1,2-dihydro-2,7-naphthyridin-4-yl)benzyl)azetidin-2-yl)methyl)(methyl)amino)methyl)-2-(2,6-dioxopiperidin-3-yl)isoindoline-1,3-dione], for which the DC50 in assay [5] lay in the range of 10 to 100 nM. On BRD9 bromodomain, the IC50 is < 10 nM.
Take `COc1cc(-c2cn(C)c(=O)c3cnccc23)cc(OC)c1CN1CC(S(=O)(=O)NCCCCCCNc2ccc3c(c2)C(=O)N(C2CCC(=O)NC2=O)C3=O)C1` (stereo not shown) [Compound D67, 1-[[2,6-dimethoxy-4-(2-methyl-1-oxo-1,2-dihydro-2,7-naphthyridin-4-yl)phenyl]methyl]-N-(6-[[2-(2,6-dioxopiperidin-3-yl)-1,3-dioxo-2,3-dihydro-1H-isoindol-5-yl]amino]hexyl)azetidine-3-sulfonamide formic acid]: the IC50 (in assay [5]; at BRD9 bromodomain) was < 10 nM each time.
In the case of `COc1cc(-c2cn(C)c(=O)c3cnccc23)cc(OC)c1CN(C)C1CC2CC1CN2C(=O)CCOCCOc1cccc2c1C(=O)N(C1CCC(=O)NC1=O)C2=O` (stereo not shown) [Compound D162], the IC50 (in assay [5]; on BRD9 bromodomain) was 10 to 100 nM in each case.
In the case of `COc1cc(-c2cn(C)c(=O)c3cnccc23)cc(OC)c1CN(C)CC1CC2(CCN(C(=O)CCOCCOc3cccc4c3C(=O)N(C3CCC(=O)NC3=O)C4=O)CC2)CO1` (stereo not shown) [Compound D109], the DC50 in assay [5] was in the range of 10 to 100 nM. Further, the IC50 on BRD9 bromodomain is < 10 nM.
On to `COc1cc(-c2cn(C)c(=O)c3cnccc23)cc(OC)c1CN1CCC2(C[C@H]2NC(=O)CCOCCOc2ccc3c(c2)C(=O)N(C2CCC(=O)NC2=O)C3=O)C1` (stereo partly shown) [Compound D126], for which the results for the IC50 (in assay [5]; at BRD9 bromodomain) were 100 to 1000 nM and 10 to 100 nM, respectively.
The corresponding values for `COc1cc(-c2cn(C)c(=O)c3cnccc23)cc(OC)c1CN1CCN(C(=O)COc2cccc3c2C(=O)N(C2CCC(=O)NC2=O)C3=O)CC1` (stereo not shown) [Compound D37, 4-(2-(4-(2,6-dimethoxy-4-(2-methyl-1-oxo-1,2-dihydro-2,7-naphthyridin-4-yl)benzyl)piperazin-1-yl)-2-oxoethoxy)-2-(2,6-dioxopiperidin-3-yl)isoindoline-1,3-dione formic acid] are < 10 nM and < 10 nM.
On to `COc1cc(-c2cn(C)c(=O)c3cnccc23)cc(OC)c1CN(C)CC1CC2CN(C(=O)CCOCCOc3cccc4c3C(=O)N(C3CCC(=O)NC3=O)C4=O)C[C@H]2C1` (stereo partly shown) [Compound D177], for which the DC50 in assay [5] is 10 to 100 nM. For the same compound, at BRD9 bromodomain, the concentration for half-maximal inhibition (IC50) was < 10 nM.
The like results for `COc1cc(-c2cn(C)c(=O)c3cnccc23)cc(OC)c1CNCCOCC(=O)N1CC(COc2ccc3c(c2)C(=O)N(C2CCC(=O)NC2=O)C3=O)C1` (stereo not shown) [Compound D74, 5-[(1-[2-[2-([[2,6-dimethoxy-4-(2-methyl-1-oxo-2,7-naphthyridin-4-yl)phenyl]methyl]amino)ethoxy]acetyl]azetidin-3-yl)methoxy]-2-(2,6-dioxopiperidin-3-yl)isoindole-1,3-dione formic acid] were, in that order, 100 to 1000 nM and < 10 nM.
The like results for `COc1cc(-c2cn(C)c(=O)c3cnccc23)cc(OC)c1CN1CC(C(=O)NCCS(=O)(=O)CCNc2cccc3c2C(=O)N(C2CCC(=O)NC2=O)C3=O)C1` (stereo not shown) [Compound D30, 1-(2,6-dimethoxy-4-(2-methyl-1-oxo-1,2-dihydro-2,7-naphthyridin-4-yl)benzyl)-N-(2-((2-((2-(2,6-dioxopiperidin-3-yl)-1,3-dioxoisoindolin-4-yl)amino)ethyl)sulfonyl)ethyl)azetidine-3-carboxamide] were, in that order, 10 to 100 nM and < 10 nM.
The like results for `COc1cc(-c2cn(C)c(=O)c3cnccc23)cc(OC)c1CN1CCC2(CC1)CN(C(=O)CCOCCOc1cccc3c1C(=O)N(C1CCC(=O)NC1=O)C3=O)C2` (stereo not shown) [Compound D88] were, in that order, 10 to 100 nM and < 10 nM.
For `COc1cc(-c2cn(C)c(=O)c3cnccc23)cc(OC)c1CN1CC2(CC(NC(=O)CCOCCOc3cccc4c3C(=O)N(C3CCC(=O)NC3=O)C4=O)C2)C1` (stereo not shown) [Compound D93], in assay [5], the DC50 lay in the range of 10 to 100 nM. Further, at BRD9 bromodomain, the IC50 is < 10 nM.

By IC50 is commonly meant the midpoint of a concentration-inhibition curve.

Source of the values: patent US11414416B1, “Compounds and uses thereof” (Foghorn Therapeutics Inc., priority 2019, dated 2022).
